Laboratory results from PMC6396489 (Cell Communication and Signaling : CCS, 2019).

Test system: NIH3T3 cells
Assay: Immunofluorescence analysis for membrane ruffling
Type: cell-based
Procedure: NIH3T3 and Raw 264.7 cells were cultured in DMEM supplemented with 2 mM L-glutamine, 50 U/mL penicillin, […] streptomycin, and 10% CS or heat-inactivated FBS (30 min at 55 °C), respectively. NIH3T3 cells were transfected with different plasmids using the Lipofectamine LTX/plus reagent according to the manufacturer’s instructions. For immunofluorescence experiments, NIH3T3 cells were seeded onto glass coverslips in 24-well plates at a concentration suitable for 70% confluence without transfection or 50% confluence in the case of Lipofectamine-based cell transfection. In the latter, approximately 24 h after seeding, NIH3T3 cells were transiently transfected with different plasmids with the Lipofectamine LTX/plus reagent following the manufacturer’s instructions. Before treatments, NIH3T3 cells were serum-starved in DMEM with 2 mM glutamine, 50 U/mL penicillin and streptomycin for 16–20 h. The cells were then treated with different stimuli and/or inhibitors, as indicated in the text and/or Figure legends. Addition of exogenous GroPIns4P was at 50 μM (unless otherwise indicated), a concentration eliciting an intracellular concentration of about 1.5 μM, as calculated from the Nernst equation (with T = 300 K, z = − 3, and Veq = − 30 mV, an average value for cultured, non-excitable cells).
For ruffle assessment after treatments, immunofluorescence labelling and morphological analysis of the cells were performed as previously described in a double-blind fashion. In brief, the assessment was based on a null score (zero) for the absence of the feature, followed by a score of one or two according to the level of response of each individual cell, where one indicate that ruffling was confined to one area of the cell (< 25% of the cell circumference), and two indicate that two or more discrete areas of the cell contained ruffles. The cell phenotypes were quantified by counting 150 cells in each sample. The data were then expressed as percentage scores (±SD) for each treatment response compared with its respective control. Scoring of the control cells was performed in the same way to evaluate the presence of the features of interest in untreated cells.

**Q.** With `O=P(O)(O)OC1C(O)C(O)C(OP(=O)(O)OCC(O)CO)C(O)C1O` (stereo not shown) [GroPIns4P, glycerophosphoinositol 4-phosphate] as the molecule, how does the “increase in peripheral ruffles versus the control” value (50 μM GroPIns4P for 5 min) read?
**A.** 2.5–3 fold

**Q.** What about the “effect on ruffle formation” value (cells expressing Shp1 S118A/R138E/S140A, 50 μM GroPIns4P) of the same molecule?
**A.** significantly inhibited

**Q.** And the membrane ruffle formation (cells over-expressing Shp1-C455S, 50 μM GroPIns4P)?
**A.** did not lead to membrane ruffle formation

**Q.** What about the actin ruffle formation (cells over-expressing Shp1 S12A/R32E/S34A, 50 μM GroPIns4P) of the same molecule?
**A.** resulted in the induction of actin ruffles
